Measurements taken from patent US9018000B2, “Voltage gated calcium channel β-subunit anchoring regulator protein and uses thereof” (Agency for Science, Technology and Research, priority 2007, dated 2015).

What was measured:
[1] = cited from earlier work
β-subunits = experiment: co-immunoprecipitation / co-precipitation of BARP with β-subunits; type: binding
Experimental: To verify that BARP binds to the β-subunits in mammalian cells, co-immunoprecipitation experiments were carried out in COS-1 cells. […] To confirm this association in vivo, we determined the subcellular localization of the β-subunits in the presence of BARP in transfected PC12 and COS-1 cells.
To examine that domain I is indeed a AID-like region, we first mutated the known amino acids in the β-subunit hydrophobic groove responsible for AID interaction, and tested these mutants for association with either AID or BARP domain I by co-precipitation studies. In comparison with the AID domain that only required M196 as a crucial interacting site, almost all amino acid substitutions in the hydrophobic groove of β-subunits interfered with BARP domain I interaction (FIG. 2Cb).
Next, we determined if additional binding sites in BARP are present for β-subunit association. With the use of truncated form of the protein, in which the domain I was abolished, and co-precipitation experiments, we identified a second domain (Dom. II) downstream to the first one (FIG. 2Da).
To further confirm that both domains associate to the β-subunit in the context of full-length BARP, domain I and II were mutated to abolish their respective interaction. […]

β3/AID complex = target: T1, β3/AID complex (Rattus norvegicus, UniProt P54287); experiment: dissociation of β3-subunits from GST-AID by competitive peptides; type: binding; conditions: peptide 30, 60, 300, 600 nM, four hours, Western blot of supernatant
T1 construct: expressed in transfected cells; host or cells: COS-1 (β3 lysate)
T1 sequence (P54287 whole entry, one chain of several): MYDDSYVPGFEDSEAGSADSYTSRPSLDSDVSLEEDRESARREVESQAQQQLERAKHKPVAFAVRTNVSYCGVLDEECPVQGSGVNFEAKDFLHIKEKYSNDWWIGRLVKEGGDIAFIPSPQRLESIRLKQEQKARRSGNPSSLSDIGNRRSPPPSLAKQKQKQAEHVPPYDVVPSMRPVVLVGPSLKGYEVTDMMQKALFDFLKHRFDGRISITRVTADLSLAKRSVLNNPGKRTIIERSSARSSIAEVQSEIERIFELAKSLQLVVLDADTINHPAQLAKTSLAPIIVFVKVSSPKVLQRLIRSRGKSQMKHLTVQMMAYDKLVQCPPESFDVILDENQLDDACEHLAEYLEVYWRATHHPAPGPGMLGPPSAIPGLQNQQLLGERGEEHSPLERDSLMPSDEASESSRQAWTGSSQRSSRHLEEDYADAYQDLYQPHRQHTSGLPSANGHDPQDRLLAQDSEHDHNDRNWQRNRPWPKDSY
Description: A, Cell surface expression of HA-epitope tagged Cav1.2 and N-Myc BARP in the presence or absence of Cavβ-subunits. Intact cells expressing Cav1.2, BARP and Cavβ-subunits were immunostained with HA and Myc antibodies. Cav 1.2 AID (X) is a mutant deficient in the β-interacting domain. BARP (db) is a mutant deficient in domain I and II, BARP (LW), or BARP (LFFL), mutants are deficient in domain I and II, respectively. Non-permeabilized TsA201 cells co-expressing wt or mutated HA-Cav1.2, wt or mutated Myc-BARP and the Cavβ-subunits were immunostained with antibodies to HA (green) and Myc (red). Cav 1.2 AID (X) and BARP (db) are mutants defective in Cavβ-subunit binding. […] In vivo expressed Cavβ3-subunits were pulled-down using a GST-AID fusion protein and the complex then incubated with increasing amounts of AID or BARP Domain I peptide. The Cavβ3-subunit displaced from the GST-AID was monitored by Western blot. […] Effects of wt or mutated BARP on the I-V relationship of Ca^2+-channels are shown. […]
To verify if the AID-like domain of BARP dissociates β-subunits from the AID of α1-subunits, COS-1 cells lysate expressing β3 subunits was incubated with GST-AID fusion protein to form a β3/AID complex and subsequently, the dissociation of β3 subunits was monitored after addition of an increasing amount of competitive AID or AID-like BARP peptide (FIG. 4D).

Compound	association with β-subunit isoforms (β-subunits)	other results
COC(=O)C1=C(C)NC(C)=C([N+](=O)[O-])C1c1ccccc1C(F)(F)F (stereo not shown) [BayK 8644]	–	side effects in vivo [1]: severe side effects such as dystonic neurobehavioural syndrome, hypertension and arrhythmia
Isolated BARP domain I: isolated AID-like β-interacting domain I of BARP, expressed as GST fusion	able to associate with all known) β-subunit isoforms	–
SYRDLWSLRASLELHAATASD [BARP Domain I peptide]	–	dissociation of β3-subunit from GST-AID (β3/AID complex): displaces the Cavβ3-subunit from the AID
isolated domain II: isolated second β-interacting domain of BARP (SEQ ID NO:8) (PRAWPRRPRRDYSIDEKTDALFHEFLRHDPHFDDAPRHR)	interacted with β2, β3 and β4, but not with β1 isoforms	–
